Measurements as given in PubChem BioAssay AID1963985 (Molecular Pharmacology Branch, DTP, NCI, 2024).

System: 252836-082-R-J2-PDC tumor spheroids, viability
Assay: Anticancer human tumor 252836-082-R-J2-PDC patient-derived head and neck squamous cell carcinoma cell line growth inhibition [PI3K]
Details: spheroids with HUVEC and MSC; for viability, T/C: stronger effect = lower value
How it was run: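 Tumor cells grown as multi-cell spheroids with HUVEC endothelial cells and MSC fibroblast-like stroma were treated with targeted agents combined with inavolisib, alpelisib, duvelisib or copanlisib. Doses fell in half-log steps from near clinical Cmax, else from 10 microM. Viability was measured.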

[1] = curve of first compound, second compound 0.0316 µM
[2] = curve of first compound, second compound 0.1 µM
[3] = curve of first compound, second compound 0.316 µM
[4] = curve of first compound, second compound 1 µM
[5] = curve of first compound, second compound 3.16 µM
[6] = curve of first compound, second compound 10 µM
[7] = second compound 0.0316 µM, first compound 0.0316 µM
[8] = second compound 0.0316 µM, first compound 0.1 µM
[9] = second compound 0.0316 µM, first compound 0.316 µM
[10] = second compound 0.0316 µM, first compound 1 µM
[11] = second compound 0.0316 µM, first compound 3.16 µM
[12] = second compound 0.0316 µM, first compound 10 µM
[13] = second compound 0.1 µM, first compound 0.0316 µM
[14] = second compound 0.1 µM, first compound 0.1 µM
[15] = second compound 0.1 µM, first compound 0.316 µM
[16] = second compound 0.1 µM, first compound 1 µM
[17] = second compound 0.1 µM, first compound 3.16 µM
[18] = second compound 0.1 µM, first compound 10 µM
[19] = second compound 0.316 µM, first compound 0.0316 µM
[20] = second compound 0.316 µM, first compound 0.1 µM
[21] = second compound 0.316 µM, first compound 0.316 µM
[22] = second compound 0.316 µM, first compound 1 µM
[23] = second compound 0.316 µM, first compound 3.16 µM
[24] = second compound 0.316 µM, first compound 10 µM
[25] = second compound 1 µM, first compound 0.0316 µM
[26] = second compound 1 µM, first compound 0.1 µM
[27] = second compound 1 µM, first compound 0.316 µM
[28] = second compound 1 µM, first compound 1 µM
[29] = second compound 1 µM, first compound 3.16 µM
[30] = second compound 1 µM, first compound 10 µM
[31] = second compound 3.16 µM, first compound 0.0316 µM
[32] = second compound 3.16 µM, first compound 0.1 µM
[33] = second compound 3.16 µM, first compound 0.316 µM
[34] = second compound 3.16 µM, first compound 1 µM
[35] = second compound 3.16 µM, first compound 3.16 µM
[36] = second compound 3.16 µM, first compound 10 µM
[37] = second compound 10 µM, first compound 0.0316 µM
[38] = second compound 10 µM, first compound 0.1 µM
[39] = second compound 10 µM, first compound 0.316 µM
[40] = second compound 10 µM, first compound 1 µM
[41] = second compound 10 µM, first compound 3.16 µM
[42] = second compound 10 µM, first compound 10 µM
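Further: spheroids exposed to agents for seven days before readout.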
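Wherever viability, T/C is given: percent of vehicle DMSO control viability so 100% = untreated growth.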

## CCCS(=O)(=O)Nc1ccc(F)c(C(=O)c2c[nH]c3ncc(-c4ccc(Cl)cc4)cc23)c1F + CC(Nc1ncnc2nc[nH]c12)c1cc2cccc(Cl)c2c(=O)n1-c1ccccc1
[1]
  IC50: 5.06 µM
[2]
  IC50: 5.5 µM
[3]
  IC50: 5.32 µM
[4]
  IC50: 4.9 µM
[5]
  IC50: 4.83 µM
[6]
  IC50: 4.09 µM
[7]
  viability, T/C: 101%
[8]
  viability, T/C: 93.7%
[9]
  viability, T/C: 109%
[10]
  viability, T/C: 92.9%
[11]
  viability, T/C: 78.7%
[12]
  viability, T/C: 8.82%
[13]
  viability, T/C: 99.6%
[14]
  viability, T/C: 92.9%
[15]
  viability, T/C: 109%
[16]
  viability, T/C: 91.9%
[17]
  viability, T/C: 88.6%
[18]
  viability, T/C: 8.07%
[19]
  viability, T/C: 98.8%
[20]
  viability, T/C: 84%
[21]
  viability, T/C: 82.7%
[22]
  viability, T/C: 90.4%
[23]
  viability, T/C: 83.1%
[24]
  viability, T/C: 9.77%
[25]
  viability, T/C: 89.2%
[26]
  viability, T/C: 90.2%
[27]
  viability, T/C: 95.6%
[28]
  viability, T/C: 104%
[29]
  viability, T/C: 76.5%
[30]
  viability, T/C: 7.1%
[31]
  viability, T/C: 86.7%
[32]
  viability, T/C: 87.5%
[33]
  viability, T/C: 88.4%
[34]
  viability, T/C: 91.5%
[35]
  viability, T/C: 72.7%
[36]
  viability, T/C: 11.2%
[37]
  viability, T/C: 71.7%
[38]
  viability, T/C: 73.2%
[39]
  viability, T/C: 68.4%
[40]
  viability, T/C: 65%
[41]
  viability, T/C: 62.3%
[42]
  viability, T/C: 10.3%

## Cn1ncc(Cl)c1-c1cc(C(=O)NC(CN)Cc2cccc(F)c2)sc1Cl (stereo unspecified)
Compound 0.0316 µM
  viability, T/C: 84.6% [middle of 4 runs]
Compound 0.1 µM
  viability, T/C: 85% [middle of 4 runs]
Compound 0.316 µM
  viability, T/C: 66.9% [middle of 4 runs]
Compound 1 µM
  viability, T/C: 42.4% [middle of 4 runs]
Compound 3.16 µM
  viability, T/C: 30.8% [middle of 4 runs]
Compound 10 µM
  viability, T/C: 12.7% [middle of 4 runs]
Curve of compound
  IC50: 684 nM [middle of 4 runs]

## CC(Cn1ccc(-c2ccc(C#N)c(Cl)c2)n1)NC(=O)c1cc(C(C)O)[nH]n1 (stereo unspecified) + CC(Nc1ncnc2nc[nH]c12)c1cc2cccc(Cl)c2c(=O)n1-c1ccccc1
[1]
  IC50: > 10 µM
[2]
  IC50: > 10 µM
[3]
  IC50: > 10 µM
[4]
  IC50: > 10 µM
[5]
  IC50: > 10 µM
[6]
  IC50: > 10 µM
[7]
  viability, T/C: 105%
[8]
  viability, T/C: 78.9%
[9]
  viability, T/C: 96.6%
[10]
  viability, T/C: 87%
[11]
  viability, T/C: 81.7%
[12]
  viability, T/C: 76.3%
[13]
  viability, T/C: 86.8%
[14]
  viability, T/C: 89.3%
[15]
  viability, T/C: 82.6%
[16]
  viability, T/C: 83%
[17]
  viability, T/C: 94.5%
[18]
  viability, T/C: 70.2%
[19]
  viability, T/C: 83.2%
[20]
  viability, T/C: 78.5%
[21]
  viability, T/C: 88.9%
[22]
  viability, T/C: 88.8%
[23]
  viability, T/C: 85.5%
[24]
  viability, T/C: 85.9%
[25]
  viability, T/C: 92.2%
[26]
  viability, T/C: 76.3%
[27]
  viability, T/C: 89.6%
[28]
  viability, T/C: 80.5%
[29]
  viability, T/C: 77%
[30]
  viability, T/C: 70.3%
[31]
  viability, T/C: 74%
[32]
  viability, T/C: 73.7%
[33]
  viability, T/C: 79.2%
[34]
  viability, T/C: 72.5%
[35]
  viability, T/C: 75%
[36]
  viability, T/C: 74.2%
[37]
  viability, T/C: 60.9%
[38]
  viability, T/C: 55.3%
[39]
  viability, T/C: 73.4%
[40]
  viability, T/C: 55.4%
[41]
  viability, T/C: 65.4%
[42]
  viability, T/C: 56.8%
